Source: US20130184246A1, “METHOD FOR TREATING FATTY LIVER DISEASES, IN PARTICULAR NON-ALCOHOLIC STEATOHEPATITIS” (priority 2010, published 2013)

Key:
fibroblasts = assay: Incubation of fibroblasts with 27-HC, endolysosomal cholesterol accumulation; assay type: cell-based
LDLr−/− mice [1] = assay: Plasma lipid analysis, NASH treatment with 27-HC; assay type: in vivo
Experimental: (§1) The experimental approach consisted of utilizing low-density (LDL) receptor-deficient mice (LDLr−/−) on a C57B16 background. This mouse model is predisposed to elevated serum cholesterol levels when fed a high-fat diet. On a normal chow diet, these mice have a three-fold increase in cholesterol levels when compared to controls.^(39) The lab determined that two weeks is sufficient for mice to reach a steatotic and inflamed liver state.
Experiments were performed in accordance with Dutch law for animal experimentation and approved by the Committee for Animal Welfare of the University of Maastricht. In this study, the aim was to investigate the ability of 27-hydroxycholesterol (generous gift from Dr. Norman B. Javitt; New York University School of Medicine) to reduce hepatic inflammation and to characterize its potential use as a therapeutic agent for NASH patients. […]
Plasma cholesterol and triglyceride measurements were tested with the enzymatic color tests. […] Absorbance was measured at the 490 nm wavelength with a Benchmark 550 Micro-plate reader. […] Subsequently, 200 μl of reagent A was added, mixed, and after 15 minutes of incubation, read at a wavelength of 545 nm for the initial absorbance. […] The final absorbance was then measured at 545 nm. The concentration of triglycerides was then calculated by subtracting the initial concentrations from the final concentrations. […]

LDLr−/− mice [2] = assay: Steatosis scoring by HE and oil red O staining of liver sections; assay type: in vivo; details: high-fat diet 27-HC-treated groups
Experimental: A total of five different experimental groups, ranging from eigtht to nine mice per group, were used to assess the effects of 27-HC. The 27-HC was dissolved in 2-hydroxypropyl-β-cyclodextrin (Sigma-Aldrich GmbH H5784; St. Louis, Mo.) and injected with a concentration of 40 mg of 27-HC per kilogram of body weight via a subcutaneous injection. Mice in Group A received a chow diet and control injections consisting of 2-hydroxypropyl-β-cyclodextrin dissolved in sodium chloride. Group B mice were also on the chow diet but are given daily subcutaneous injections of 27-HC. Group C were the mice that received the high-fat diet (21% fat; 0.2% cholesterol) and control injections. To differentiate between a therapeutic and a regression effect of the 27-HC, the following two groups were set up: a high-fat diet with daily 27-HC injections (Group D) and a high-fat diet group with two weeks of control injections followed by a week of 27-HC injections (Group E). Mice were housed under standard conditions with food and water available ad libidum. […]
Stained sections were scored in a blind manner by a specialized animal pathologist. […] Sections were scored for the quantity of fat droplets and for the foamy appearance of Kupffer cells. […]
To verify the quantification of fat, 7 μm thick frozen sections were stained with oil red O (ORO; O0725; Sigma-Aldrich), the neutral lipid marker. […]

[3] = test system: hyperlipidemic LDLR knockout mice; assay: HFC diet supplemented with 27-hydroxycholesterol in hyperlipidemic LDLR knockout mice; assay type: in vivo; details: HFC diet supplemented with 27-hydroxycholesterol 0.1% w/w for three weeks vs HFC diet
Excerpt: To determine whether exogenous 27-HC can reduce hepatic inflammation, hyperlipidemic LDLR knockout mice may be fed either chow, HFC diet or HFC diet supplemented with 27-hydroxycholesterol (0.1% w/w) for three weeks. Then, the mice may be sacrificed and detailed characterization of liver and plasma may be performed.

LDLr−/− mice [4] = assay: Hepatic inflammation: immunohistochemical staining for infiltrated macrophages (MAC1) and neutrophils (NIMP); assay type: in vivo; details: vs Group C; for Infiltrated macrophages (MAC1 staining): FIG. 3A
Experimental: A total of five different experimental groups, ranging from eigtht to nine mice per group, were used to assess the effects of 27-HC. The 27-HC was dissolved in 2-hydroxypropyl-β-cyclodextrin (Sigma-Aldrich GmbH H5784; St. Louis, Mo.) and injected with a concentration of 40 mg of 27-HC per kilogram of body weight via a subcutaneous injection. Mice in Group A received a chow diet and control injections consisting of 2-hydroxypropyl-β-cyclodextrin dissolved in sodium chloride. Group B mice were also on the chow diet but are given daily subcutaneous injections of 27-HC. Group C were the mice that received the high-fat diet (21% fat; 0.2% cholesterol) and control injections. To differentiate between a therapeutic and a regression effect of the 27-HC, the following two groups were set up: a high-fat diet with daily 27-HC injections (Group D) and a high-fat diet group with two weeks of control injections followed by a week of 27-HC injections (Group E). Mice were housed under standard conditions with food and water available ad libidum.
One day previous to the start of the experiment, the mice were weighed and 100-200 μl of blood were collected in a capillary tube after four hours of fasting via an incision in the tail vein. On day 0, the feeding of specialized diets and injections began according to each group. On the 21st day after the start of the experiment, the animals were weighed and fasted for four hours and had another 100-200 μl of blood drawn and collected in a capillary tube via an incision in the tail vein. Afterwards, the mice were sacrificed via cervical dislocation and immediately had their livers removed via a laparotomy consisting of an incision from the pelvis to the rib cage to gain access into the abdomen. […]
Nikon digital camera model DMX1200 and ACT-1 v2.63 software from Nikon Corporation were used to photograph each section. […] The positive cells for each picture were then counted or scored and noted as cells or lipid droplets per square millimeter, respectively.

LDLr−/− mice [5] = assay: Liver lipid analysis, NASH treatment with 27-HC; assay type: in vivo
Experimental: as §1
Experiments were performed in accordance with Dutch law for animal experimentation and approved by the Committee for Animal Welfare of the University of Maastricht. […]
Homogenization of approximately 50 mg of frozen liver tissue was completed at 5000 rpm for 30 seconds with 1.0 mm glass beads along with 1.0 ml SET buffer (sucrose 250 mmol/L, EDTA 2 mmol/L, and Tris 10 mmol/L). […] After adding 200 μl of the reagents (50 parts A, 1 part B) and letting the mixture stand for 30 minutes at 37° C., the absorbance was measured utilizing the enzymatic color test bicinchoninic acid (BCA) method (Pierce, Rockford, Ill.) at a wavelength of 560 nm with a Benchmark 550 Micro-plate reader (170-6750XTU; Bio-Rad, Hercules, Calif.). […]

Q: Which Endolysosomal cholesterol accumulation (fibroblasts) does the source give for `C[C@@H](CO)CCC[C@@H](C)[C@H]1CC[C@H]2[C@@H]3CC=C4C[C@@H](O)CC[C@]4(C)[C@H]3CC[C@]12C` [27-HC, 27-hydroxycholesterol] here?
A: decrease endolysosomal cholesterol accumulation

Q: What about the Plasma cholesterol levels (LDLr−/− mice [1]; 27-HC 40 mg/kg s.c. injected groups vs control-injected groups, 3 weeks, FIG. 2A) of the same molecule?
A: do not show altered cholesterol levels

Q: And the Plasma triglycerides (LDLr−/− mice [1]; Group D: high-fat diet, daily 27-HC 40 mg/kg s.c. for three weeks, vs Groups C and E, FIG. 2B)?
A: diminished

Q: And the “Steatosis score, HE staining” value (LDLr−/− mice [2]; FIG. 2E)?
A: do not show any statistical significance or trends

Q: And the “Steatosis score, oil Red O staining” value (LDLr−/− mice [2]; FIG. 2F)?
A: do not show any statistical significance or trends

Q: And the “Liver and systemic inflammation” value [3]?
A: reduced liver and systemic inflammation

Q: And the Lysosomal cholesterol accumulation [3]?
A: less lysosomal cholesterol accumulation

Q: What about the “Infiltrated macrophages (MAC1 staining)” value (LDLr−/− mice [4]; Group D: high-fat diet, daily 27-HC for three weeks) of the same molecule?
A: significantly decreased

Q: And the “Neutrophils (NIMP staining)” value (LDLr−/− mice [4]; Group D: high-fat diet, daily 27-HC for three weeks, FIG. 3B)?
A: decreased neutrophils

Q: What about the “Infiltrated macrophages (MAC1 staining)” value (LDLr−/− mice [4]; Group E: high-fat diet, two weeks control injections then one week 27-HC) of the same molecule?
A: significantly decreased

Q: And the Liver cholesterol levels (LDLr−/− mice [5]; 27-HC 40 mg/kg s.c. injected groups vs control-injected groups, 3 weeks, FIG. 2C)?
A: do not show altered cholesterol levels

Q: What about the Liver triglycerides (LDLr−/− mice [5]; among high-fat diet groups C-E, FIG. 2D) of the same molecule?
A: no significant differences
